Biological target: Mucolipin-3 (Homo sapiens) (UniProt Q8TDD5)
Test: calcium influx via TRP channels, profiling panel, selectivity assay for selective TRPML3 agonist project, cell-based, HEK293 transfected, Fura-2 ratio imaging (AID 2719)
Settings: fura-2 calcium ratio, at 10 µM, hits give high values

Mucolipin-3 (Homo sapiens), sequence (Q8TDD5 whole entry, looked up): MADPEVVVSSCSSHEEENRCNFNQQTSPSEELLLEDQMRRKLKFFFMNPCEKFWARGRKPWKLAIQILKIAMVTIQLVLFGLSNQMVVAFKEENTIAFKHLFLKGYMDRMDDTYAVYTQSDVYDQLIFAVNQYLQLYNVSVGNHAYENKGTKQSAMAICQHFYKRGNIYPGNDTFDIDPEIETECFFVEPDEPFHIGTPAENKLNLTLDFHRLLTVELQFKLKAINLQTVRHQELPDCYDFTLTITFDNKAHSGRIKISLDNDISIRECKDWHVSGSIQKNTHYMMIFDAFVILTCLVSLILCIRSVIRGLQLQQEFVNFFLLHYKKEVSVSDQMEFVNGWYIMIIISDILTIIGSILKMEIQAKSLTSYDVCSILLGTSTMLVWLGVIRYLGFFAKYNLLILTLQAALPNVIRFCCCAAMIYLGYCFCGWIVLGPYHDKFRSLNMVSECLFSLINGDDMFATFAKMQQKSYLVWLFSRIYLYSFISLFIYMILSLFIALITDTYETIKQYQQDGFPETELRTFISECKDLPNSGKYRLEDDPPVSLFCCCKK

Row | fura-2 ratio change (340/380) | SMILES
1 | 0.52 | CC1CCN(S(=O)(=O)c2ccc(C(C)C)cc2)CC1
2 | 0.72 | Cc1ccc(S(=O)(=O)n2nccc2-c2c(-c3ccc(Cl)cc3)noc2C)cc1
3 | 1 | CCOc1ccc(S(=O)(=O)N2CCCCCC2)c2ccccc12

Reference: PubChem BioAssay AID2719 (The Scripps Research Institute Molecular Screening Center, 2010)
